We go through two compounds from ChEMBL document CHEMBL1759919, “1α,25-Dihydroxyvitamin D3-3β-bromoacetate, a potential cancer therapeutic agent: synthesis and molecular mechanism of action” (Bioorg Med Chem Lett, 2011).

Assay type in all cases: functional, cell-based
For experiment [1], the system named is A498. In words: Induction of CYP24 mRNA expression in human A498 cells at 10^-6 M after 24 hrs by RT-PCR analysis.
Experiment [2] relates to A498. In words: Induction of CYP24 mRNA expression in human A498 cells at 10^-8 M after 16 hrs by RT-PCR analysis.
The test system of experiment [3] is A498. In words: Induction of CYP24 mRNA expression in human A498 cells at 10^-8 M after 4 hrs by RT-PCR analysis.

Active and inactive are the calls of the source. The calls are words filed in the database; no cut-off is given here.

In the case of `C=C1/C(=C\C=C2/CCC[C@]3(C)[C@@H]([C@H](C)CCCC(C)(C)O)CC[C@@H]23)C[C@@H](OC(=O)CBr)C[C@@H]1O`, the outcome with A498 [1] and in the experiment on A498 [2] was Active.

For `C=C1/C(=C\C=C2/CCC[C@]3(C)[C@@H]([C@H](C)CCCC(C)(C)O)CC[C@@H]23)C[C@@H](O)C[C@@H]1O`, the result in the experiment on A498 [3] and in the experiment on A498 [2] was Active.
